Results reported in patent publication US11512042B2, “Enamine compounds for absorbance of electromagnetic energy” (Commonwealth Scientific and Industrial Research Organisation, priority 2015, dated 2022).

Assay: UV absorbance spectrum in solution (λmax, λcrit, extinction coefficients)
Assay type: physicochemical
Settings: for λcrit: critical wavelength; for E (1%, 1 cm): mass extinction coefficient; for ε: molar extinction coefficient, in M-1 cm-1 (unit assumed)
Source text: FIG. 1 is a graphical representation of the absorbance of compounds 142 and 143 measured in a 10 mm cuvette as 0.001% solutions in methanol (142 is the uppermost trace at peak point of approximately 330 nm); The synthesised benzoyl functionalised compounds and their spectroscopic properties can be seen in table 2 wherein; breakthrough denotes the value in nm where transmittance increases beyond 1%; steepness refers to the distance in nm over which transmittance increases from 1 to 80% (a higher value indicates a less steep transition from absorbing to transmitting and is generally unfavourable); and ^a denotes an average of multiple measurements. As a general comment, it can be noted that the benzoyl substituted compounds gave similar absorbance maxima to the corresponding trifluoroacetyl derivative.

Compound	λmax	λcrit	E (1%, 1 cm)	ε
O=C(/C(=C\N1CCOCC1)c1ccccc1)C(F)(F)F [Compound 209]	320 nm	351 nm	855	24356
O=C(/C(=C\N1CCCC1)c1ccccc1)C(F)(F)F [Compound 193]	323 nm	354 nm	769	20673
CCN(/C=C(\C(=O)C(F)(F)F)c1ccccc1)c1cccc2ccccc12 [Compound 189]	324 nm	357 nm	634	23400
CCOc1ccc(/C(=C/N(CC)c2ccccc2)C(=O)C(F)(F)F)cc1 [Compound 197]	335 nm	369 nm	1166	42359
CCCN(/C=C(\C(=O)C(F)(F)F)c1ccccc1)c1ccc(N(/C=C(\C(=O)C(F)(F)F)c2ccccc2)CCC)cc1 [Compound 196]	344 nm	378 nm	714	41997
CCN(/C=C(\C(=O)C(F)(F)C(F)(F)C(F)(F)C(=O)/C(=C\N(CC)c1ccccc1)c1ccccc1)c1ccccc1)c1ccccc1 [Compound 190]	330 nm	370 nm	616	40027
C=CCN(/C=C(\C(=O)C(F)(F)F)c1ccccc1)c1ccccc1 [Compound 172]	331 nm	365 nm	673	22290
O=C(/C(=C\N1CCCc2ccccc21)c1ccccc1)C(F)(F)F [Compound 163]	354 nm	383 nm	811	26848
O=C(/C(=C\N1CCc2cc(F)ccc21)c1ccccc1)C(F)(F)F [Compound 198]	368 nm	389 nm	890	29804
Cc1cccc2c1N(/C=C(\C(=O)C(F)(F)F)c1ccccc1)CC2 [Compound 199]	360 nm	386 nm	975	32273
O=C(/C(=C\N1CCc2cc([N+](=O)[O-])ccc21)c1ccccc1)C(F)(F)F [Compound 206]	398 nm	396 nm	1390	50315
O=C(/C(=C\N1CCN(/C=C(/C(=O)C(F)(F)F)c2ccccc2)CC1)c1ccccc1)C(F)(F)F [Compound 195]	339 nm	360 nm	689	33248
Cc1ccc2c(c1)CCN2/C=C(\C(=O)C(F)(F)F)c1ccccc1 [Compound 205]	371 nm	391 nm	1108	36692
CCN(/C=C(\C(=O)C(F)(F)F)c1ccccc1)c1cccc(C)c1 [Compound 186]	331 nm	367 nm	709	23605
O=C(/C(=C\N1CCCCC1)c1ccccc1)C(F)(F)F [Compound 192]	322 nm	353 nm	884	25028
O=C(/C(=C\N1CCc2ccccc2C1)c1ccccc1)C(F)(F)F [Compound 194]	321 nm	352 nm	687	22743
O=C(/C(=C\N1CCc2ccc([N+](=O)[O-])cc21)c1ccccc1)C(F)(F)F [Compound 202]	355 nm	387 nm	903	32693
CCN(/C=C(\C(=O)C(F)(F)F)c1ccccc1)c1ccccc1C [Compound 177]	320 nm	354 nm	707	23543
O=C(/C(=C\N(Cc1ccccc1)c1ccccc1)c1ccccc1)C(F)(F)F [Compound 162]	329 nm	365 nm	620	23495

The remaining lines, values ahead:

λmax	λcrit	E (1%, 1 cm)	ε	Compound
376 nm	391 nm	710	24860	CN(/C=C(\C(=O)C(F)(F)F)c1ccccc1)c1ccc([N+](=O)[O-])cc1 [Compound 219]
324 nm	359 nm	843	29114	O=C(/C(=C\N1CCCCc2ccccc21)c1ccccc1)C(F)(F)F [Compound 217]
350 nm	380 nm	837	28907	CC1CCc2ccccc2N1/C=C(\C(=O)C(F)(F)F)c1ccccc1 (stereo not shown) [Compound 211]
332 nm	366 nm	609	24181	CCN(/C=C(\C(=O)C(F)(F)F)c1ccccc1)c1cccc(Br)c1 [Compound 225]
344 nm	377 nm	679	25885	Cc1ccccc1N(/C=C(\C(=O)C(F)(F)F)c1ccccc1)c1ccccc1 [Compound 223]
371 nm	390 nm	994	39265	O=C(/C(=C\N1CCc2cc(Br)ccc21)c1ccccc1)C(F)(F)F [Compound 214]
332 nm	367 nm	651	25865	CCN(/C=C(\C(=O)C(F)(F)F)c1ccccc1)c1ccc(Br)cc1 [Compound 216]
375 nm	391 nm	833	44357	CCN(CCOC(=O)c1ccc2c(c1)CCN2/C=C(\C(=O)C(F)(F)F)c1ccccc1)C(=O)OC(C)(C)C [Compound 218]
332 nm	366 nm	490	21876	CCCCC(CC)COc1cccc(N(/C=C(\C(=O)C(F)(F)F)c2ccccc2)CC)c1 (stereo not shown) [Compound 221]
332 nm	371 nm	532	23819	CCCCC(CC)COc1ccc(N(/C=C(\C(=O)C(F)(F)F)c2ccccc2)CC)cc1 (stereo not shown) [Compound 220]
326 nm	356 nm	819	40611	O=C(/C(=C\N1CCCN(/C=C(/C(=O)C(F)(F)F)c2ccccc2)CC1)c1ccccc1)C(F)(F)F [Compound 210]
374 nm	388 nm	685	43151	CCN(/C=C(\C(=O)C(F)(F)F)c1ccccc1)CCOC(=O)c1ccc2c(c1)CCN2/C=C(\C(=O)C(F)(F)F)c1ccccc1 [Compound 226]
